We go through four molecules from patent publication EP3212201B1, “NUCLEOSIDE KINASE INHIBITORS” (BCI Pharma, priority 2014, dated 2016).

What all share (assay): FRET-based coupled-enzyme protein kinase inhibition assay
Holding throughout (format): biochemical
What all share (conditions): compound at 10 µM, 1% DMSO

One experiment has as its target CSNK2A1 (CK2 alpha 1) (Homo sapiens, UniProt P68400). The method in brief: (§1)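 FRET peptide (coumarin donor, fluorescein acceptor) was phosphorylated by each kinase in 50 mM HEPES pH 7.5, 10 mM MgCl2, 1 mM EDTA, 0.01% BRIJ-35 for 60 min at room temperature. ATP was at apparent Km, compounds in 1% DMSO. Protease development reagent then cleaved non-phosphorylated peptide over 60 min.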

Another experiment addresses MAPK3 (ERK1) (Homo sapiens, UniProt P27361). Summed up: as §1
In another experiment the target is MAPK14 (p38 alpha) (Homo sapiens, UniProt Q16539). The method in brief:
as §1

The target in another experiment is MAP2K1 (MEK1) (Homo sapiens, UniProt Q02750). Summed up: as §1
Another experiment has as its target T1, NEK1 (Homo sapiens, UniProt Q96PY6).
T1 sequence (Q96PY6 1-1258): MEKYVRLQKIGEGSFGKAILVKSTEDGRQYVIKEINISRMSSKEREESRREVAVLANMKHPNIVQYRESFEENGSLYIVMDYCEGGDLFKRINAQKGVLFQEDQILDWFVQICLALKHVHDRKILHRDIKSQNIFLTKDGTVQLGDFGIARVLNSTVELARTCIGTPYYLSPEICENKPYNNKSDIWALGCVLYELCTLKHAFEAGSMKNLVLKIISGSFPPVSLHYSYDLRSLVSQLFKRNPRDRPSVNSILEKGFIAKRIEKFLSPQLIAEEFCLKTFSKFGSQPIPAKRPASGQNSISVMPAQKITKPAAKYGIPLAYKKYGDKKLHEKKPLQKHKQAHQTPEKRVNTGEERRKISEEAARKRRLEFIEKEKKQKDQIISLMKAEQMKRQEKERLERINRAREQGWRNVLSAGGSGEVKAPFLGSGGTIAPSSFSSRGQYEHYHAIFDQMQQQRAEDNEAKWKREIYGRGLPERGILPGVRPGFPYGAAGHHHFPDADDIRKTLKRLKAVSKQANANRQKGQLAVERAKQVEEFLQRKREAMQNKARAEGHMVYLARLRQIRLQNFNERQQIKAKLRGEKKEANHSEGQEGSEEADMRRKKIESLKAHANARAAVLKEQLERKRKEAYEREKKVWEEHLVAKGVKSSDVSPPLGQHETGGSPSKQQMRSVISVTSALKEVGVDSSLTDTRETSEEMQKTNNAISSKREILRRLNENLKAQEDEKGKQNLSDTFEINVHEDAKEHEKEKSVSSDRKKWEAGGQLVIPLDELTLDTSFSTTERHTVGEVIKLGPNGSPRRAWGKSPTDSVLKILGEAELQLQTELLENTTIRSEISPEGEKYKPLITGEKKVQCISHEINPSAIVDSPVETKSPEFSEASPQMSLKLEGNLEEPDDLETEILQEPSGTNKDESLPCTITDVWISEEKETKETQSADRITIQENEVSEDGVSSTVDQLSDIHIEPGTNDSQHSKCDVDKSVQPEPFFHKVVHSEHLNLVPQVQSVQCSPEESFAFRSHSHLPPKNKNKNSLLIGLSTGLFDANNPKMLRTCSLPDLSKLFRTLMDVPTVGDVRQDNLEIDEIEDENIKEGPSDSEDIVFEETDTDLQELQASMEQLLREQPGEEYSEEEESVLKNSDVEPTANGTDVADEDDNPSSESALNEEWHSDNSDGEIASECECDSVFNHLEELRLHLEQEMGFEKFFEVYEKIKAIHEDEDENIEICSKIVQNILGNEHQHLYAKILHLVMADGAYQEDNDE
Summed up: as §1

The next experiment concerns the target KIT (Homo sapiens, UniProt P10721). Summed up:
as §1

Another experiment has as its target MAPK1 (ERK2) (Homo sapiens, UniProt P28482). The method in brief: as §1
In a further experiment the target is MARK2 (Homo sapiens, UniProt Q7KZI7). Summed up:
as §1

For another experiment, the target named is FRAP1 (mTOR) (Homo sapiens, UniProt P42345). The method in brief:
as §1

A further experiment concerns the target BTK (Homo sapiens, UniProt Q06187). The method in brief: as §1

Sequence of MAPK3 (ERK1) (P27361 whole entry, species assumed): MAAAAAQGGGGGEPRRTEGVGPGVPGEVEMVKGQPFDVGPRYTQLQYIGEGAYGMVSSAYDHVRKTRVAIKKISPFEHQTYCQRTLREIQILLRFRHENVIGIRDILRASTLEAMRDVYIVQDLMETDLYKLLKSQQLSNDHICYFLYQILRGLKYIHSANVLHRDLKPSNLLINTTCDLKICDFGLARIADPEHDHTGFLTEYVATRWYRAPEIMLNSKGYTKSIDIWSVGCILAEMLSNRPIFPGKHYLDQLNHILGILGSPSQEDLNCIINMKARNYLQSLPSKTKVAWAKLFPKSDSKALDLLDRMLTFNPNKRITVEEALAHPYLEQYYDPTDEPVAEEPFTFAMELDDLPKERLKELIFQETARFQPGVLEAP
Sequence of MAPK1 (ERK2) (P28482 whole entry, species assumed): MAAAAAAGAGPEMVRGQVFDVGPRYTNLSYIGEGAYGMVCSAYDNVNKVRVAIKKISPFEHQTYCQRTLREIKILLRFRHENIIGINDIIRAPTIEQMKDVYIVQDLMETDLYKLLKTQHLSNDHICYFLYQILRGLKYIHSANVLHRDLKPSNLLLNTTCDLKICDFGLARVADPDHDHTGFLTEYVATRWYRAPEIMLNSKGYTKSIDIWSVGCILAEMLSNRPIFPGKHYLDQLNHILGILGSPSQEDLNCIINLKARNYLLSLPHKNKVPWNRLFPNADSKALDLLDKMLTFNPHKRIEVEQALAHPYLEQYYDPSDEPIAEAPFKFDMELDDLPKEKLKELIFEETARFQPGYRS
Sequence of CSNK2A1 (CK2 alpha 1) (P68400 whole entry, species assumed): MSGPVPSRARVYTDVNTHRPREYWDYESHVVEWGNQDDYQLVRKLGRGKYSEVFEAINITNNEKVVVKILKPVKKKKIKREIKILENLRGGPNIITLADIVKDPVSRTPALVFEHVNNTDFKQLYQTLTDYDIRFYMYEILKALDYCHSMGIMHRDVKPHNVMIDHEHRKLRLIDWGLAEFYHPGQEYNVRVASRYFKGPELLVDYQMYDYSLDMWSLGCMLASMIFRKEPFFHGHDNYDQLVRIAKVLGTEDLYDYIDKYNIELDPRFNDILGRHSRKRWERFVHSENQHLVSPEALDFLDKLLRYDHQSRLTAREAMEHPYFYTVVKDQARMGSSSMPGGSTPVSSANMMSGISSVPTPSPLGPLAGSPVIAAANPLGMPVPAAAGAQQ
Sequence of MAPK14 (p38 alpha) (Q16539 whole entry, species assumed): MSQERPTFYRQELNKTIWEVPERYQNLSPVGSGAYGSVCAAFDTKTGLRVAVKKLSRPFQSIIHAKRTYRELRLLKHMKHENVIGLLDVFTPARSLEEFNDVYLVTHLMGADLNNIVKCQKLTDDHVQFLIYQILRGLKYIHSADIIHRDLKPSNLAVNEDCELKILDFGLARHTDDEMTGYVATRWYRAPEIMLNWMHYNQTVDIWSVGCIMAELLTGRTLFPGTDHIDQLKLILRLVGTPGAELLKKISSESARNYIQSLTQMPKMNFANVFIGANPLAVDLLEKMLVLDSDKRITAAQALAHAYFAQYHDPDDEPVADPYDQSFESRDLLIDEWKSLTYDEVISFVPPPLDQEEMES
Sequence of KIT (P10721 26-976, species assumed): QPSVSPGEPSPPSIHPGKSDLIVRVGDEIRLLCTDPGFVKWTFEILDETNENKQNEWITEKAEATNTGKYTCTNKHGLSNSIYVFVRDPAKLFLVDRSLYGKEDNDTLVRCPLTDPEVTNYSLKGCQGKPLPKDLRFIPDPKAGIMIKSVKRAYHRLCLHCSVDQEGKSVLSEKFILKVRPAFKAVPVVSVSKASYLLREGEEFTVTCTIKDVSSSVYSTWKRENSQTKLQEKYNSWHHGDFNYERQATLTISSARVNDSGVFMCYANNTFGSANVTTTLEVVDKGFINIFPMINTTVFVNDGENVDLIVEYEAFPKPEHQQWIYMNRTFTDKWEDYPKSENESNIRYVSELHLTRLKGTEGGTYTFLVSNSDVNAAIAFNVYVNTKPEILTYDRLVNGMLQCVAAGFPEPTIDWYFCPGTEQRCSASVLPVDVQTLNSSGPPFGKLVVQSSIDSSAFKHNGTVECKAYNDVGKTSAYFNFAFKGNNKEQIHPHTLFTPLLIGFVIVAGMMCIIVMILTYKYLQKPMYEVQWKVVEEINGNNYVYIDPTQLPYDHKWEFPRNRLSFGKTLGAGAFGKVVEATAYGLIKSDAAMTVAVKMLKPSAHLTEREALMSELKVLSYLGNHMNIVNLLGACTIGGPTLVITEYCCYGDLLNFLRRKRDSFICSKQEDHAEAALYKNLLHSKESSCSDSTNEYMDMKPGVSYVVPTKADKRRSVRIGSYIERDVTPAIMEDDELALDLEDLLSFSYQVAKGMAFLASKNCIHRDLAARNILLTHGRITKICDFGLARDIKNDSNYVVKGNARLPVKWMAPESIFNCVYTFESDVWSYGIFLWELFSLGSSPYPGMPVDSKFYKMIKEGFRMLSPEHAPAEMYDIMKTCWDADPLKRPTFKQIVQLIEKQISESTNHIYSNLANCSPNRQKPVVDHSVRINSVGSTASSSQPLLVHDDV
Sequence of BTK (Q06187 whole entry, species assumed): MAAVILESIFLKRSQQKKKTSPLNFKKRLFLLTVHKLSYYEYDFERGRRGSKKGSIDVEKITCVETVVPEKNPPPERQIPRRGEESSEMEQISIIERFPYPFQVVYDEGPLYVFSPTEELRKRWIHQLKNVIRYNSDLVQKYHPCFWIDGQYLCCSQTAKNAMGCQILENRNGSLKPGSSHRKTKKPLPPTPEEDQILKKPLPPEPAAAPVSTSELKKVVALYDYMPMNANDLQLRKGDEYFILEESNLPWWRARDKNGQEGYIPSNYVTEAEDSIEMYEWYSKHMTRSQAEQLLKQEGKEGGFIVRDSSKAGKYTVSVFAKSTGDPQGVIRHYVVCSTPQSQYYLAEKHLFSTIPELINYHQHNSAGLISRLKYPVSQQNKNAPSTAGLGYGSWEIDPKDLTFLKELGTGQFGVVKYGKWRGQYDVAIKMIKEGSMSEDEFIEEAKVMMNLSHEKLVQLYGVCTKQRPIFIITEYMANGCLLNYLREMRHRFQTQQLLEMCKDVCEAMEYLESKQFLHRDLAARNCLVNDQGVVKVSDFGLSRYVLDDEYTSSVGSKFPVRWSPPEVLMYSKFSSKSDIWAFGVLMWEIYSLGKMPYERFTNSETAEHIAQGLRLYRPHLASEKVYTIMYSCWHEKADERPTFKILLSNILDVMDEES
Sequence of MAP2K1 (MEK1) (Q02750 whole entry, species assumed): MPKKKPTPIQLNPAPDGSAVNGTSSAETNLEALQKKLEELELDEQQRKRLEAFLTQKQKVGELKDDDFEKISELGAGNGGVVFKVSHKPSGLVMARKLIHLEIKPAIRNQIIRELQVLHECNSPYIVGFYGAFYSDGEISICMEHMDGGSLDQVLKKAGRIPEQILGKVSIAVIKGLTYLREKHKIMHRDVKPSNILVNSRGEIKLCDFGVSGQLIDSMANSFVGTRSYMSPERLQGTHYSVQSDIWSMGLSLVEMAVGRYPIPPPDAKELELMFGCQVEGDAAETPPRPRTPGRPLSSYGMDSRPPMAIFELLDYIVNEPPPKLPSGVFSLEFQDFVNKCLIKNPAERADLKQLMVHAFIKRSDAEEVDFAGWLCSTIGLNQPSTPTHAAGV
Sequence of MARK2 (Q7KZI7 whole entry, species assumed): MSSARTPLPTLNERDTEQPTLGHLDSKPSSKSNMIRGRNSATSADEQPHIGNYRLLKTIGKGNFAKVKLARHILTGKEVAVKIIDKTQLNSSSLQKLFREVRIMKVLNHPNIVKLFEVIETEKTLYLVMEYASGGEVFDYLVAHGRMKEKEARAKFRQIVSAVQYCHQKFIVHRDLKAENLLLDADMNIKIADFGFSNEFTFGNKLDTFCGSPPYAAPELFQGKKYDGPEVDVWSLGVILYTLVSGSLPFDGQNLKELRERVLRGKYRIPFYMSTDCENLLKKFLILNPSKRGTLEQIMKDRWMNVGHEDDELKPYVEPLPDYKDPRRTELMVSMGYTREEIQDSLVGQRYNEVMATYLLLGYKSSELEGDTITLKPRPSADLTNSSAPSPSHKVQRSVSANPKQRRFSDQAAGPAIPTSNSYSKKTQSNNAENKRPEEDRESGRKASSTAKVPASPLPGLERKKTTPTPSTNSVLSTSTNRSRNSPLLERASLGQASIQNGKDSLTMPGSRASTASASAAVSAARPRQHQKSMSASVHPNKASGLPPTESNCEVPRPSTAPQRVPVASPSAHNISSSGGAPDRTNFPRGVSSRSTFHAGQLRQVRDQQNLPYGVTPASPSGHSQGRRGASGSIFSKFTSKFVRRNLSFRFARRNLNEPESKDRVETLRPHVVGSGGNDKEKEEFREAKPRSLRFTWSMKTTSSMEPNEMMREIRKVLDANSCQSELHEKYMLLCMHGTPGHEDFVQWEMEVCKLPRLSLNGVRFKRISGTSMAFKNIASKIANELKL

As to `C[C@@H](NC(=O)OC[C@H]1O[C@@H](n2cnc3c(N)ncnc32)[C@H](O)[C@@H]1O)c1ccc(Cl)cc1` [Compound C4], the inhibition (as a rule, the relative decrease from the control value, in per cent) at 10 µM at CSNK2A1 (CK2 alpha 1) is 8%; against MAPK3 (ERK1) it was 6%; at MAPK14 (p38 alpha), -1%; against MAP2K1 (MEK1), 4%; against NEK1, 4%; at KIT, 20%. Besides, the inhibition at 10 µM was 8% at MAPK1 (ERK2), 20% against MARK2, -5% against FRAP1 (mTOR) and 2% against BTK.
Take `Nc1ncnc2c1ncn2[C@@H]1O[C@H](COC(=O)N[C@@H]2CCN(Cc3ccccc3)C2)[C@@H](O)[C@H]1O` [Compound C10]: the inhibition at 10 µM at CSNK2A1 (CK2 alpha 1) is 2%; on MAPK3 (ERK1) it was 5%; against MAPK14 (p38 alpha) it was 6%; against MAP2K1 (MEK1) it was 0%; at NEK1, 11%; against KIT it was 7%. Besides, the inhibition at 10 µM against MAPK1 (ERK2) is 8%; against MARK2, 8%; at FRAP1 (mTOR), -3%; on BTK, 7%.
Take `N#CCCN1CCN(C(=O)OC[C@H]2O[C@@H](n3cnc4c(N)ncnc43)[C@H](O)[C@@H]2O)CC1` [Compound C70]: the inhibition at 10 µM at CSNK2A1 (CK2 alpha 1) was found to be 4%; at MAPK3 (ERK1), 4%; against MAPK14 (p38 alpha), 4%; against MAP2K1 (MEK1) it was 3%; at NEK1, 6%; at KIT, 12%. Moreover, the inhibition at 10 µM at MAPK1 (ERK2) is 16%; against MARK2, 6%; against FRAP1 (mTOR), -6%; against BTK, 1%.
As to `Nc1ncnc2c1ncn2[C@@H]1O[C@H](COC(=O)N2CCS(=O)(=O)CC2)[C@@H](O)[C@H]1O` [Compound C100], the inhibition at 10 µM against CSNK2A1 (CK2 alpha 1) was 5%; against MAPK3 (ERK1) it was 10%; against MAPK14 (p38 alpha), -4%; at MAP2K1 (MEK1), 5%; at NEK1, -3%; against KIT it was -9%. In addition, the inhibition at 10 µM on MAPK1 (ERK2) is 13%; on MARK2, 15%; against FRAP1 (mTOR), -2%; at BTK, -5%.
